Source: ChEMBL document CHEMBL1127105, “Adenosine-2-monophosphate derivatives: Structural requirements as substrates for inositol monophosphatase” (Bioorg Med Chem Lett, 1993)

Columns and labels:
[1] = target: T1, Inositol monophosphatase 1 (Bos taurus) (UniProt P20456); assay: Activity against the bovine inositol monophosphatase was determined by rate of release of inorganic phosphate at 1 mM substrate concentration, 1 mM of inositol-1-phosphate (1).
T1 sequence (whole entry): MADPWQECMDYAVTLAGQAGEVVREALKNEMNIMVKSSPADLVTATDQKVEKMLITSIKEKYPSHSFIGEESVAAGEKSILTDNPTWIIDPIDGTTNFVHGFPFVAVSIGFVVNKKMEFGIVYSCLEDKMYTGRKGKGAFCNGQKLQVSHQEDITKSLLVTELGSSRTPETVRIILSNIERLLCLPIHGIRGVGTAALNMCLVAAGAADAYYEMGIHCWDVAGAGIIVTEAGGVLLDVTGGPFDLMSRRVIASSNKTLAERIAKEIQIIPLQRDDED

[2] = target: T2, Inositol monophosphatase 1 (Bos taurus, UniProt P20456); assay: Tested for the inhibitory activity against bovine inositol monophosphatase by measuring concentration inhibiting the production of [14C]inositol from racemic inositol monophosphate (1) containing [14C]-1
T2 sequence (P20456 whole entry): T1 sequence (whole entry)

SMILES	Activity [1]	IC50 [2] [µM]
O=P(O)(O)O[C@H]1CCC[C@H]1O	–	5000
O=P(O)(O)[C@H]1CC[C@H](O)C[C@H]1O	–	7
Nc1ncnc2c1ncn2[C@@H]1O[C@H](CO)[C@@H](O)[C@H]1OP(=O)(O)O	0.48	1300

More lines, now with the values ahead:

Activity [1]	IC50 [2] [µM]	SMILES
< 0.05	310	O=P(O)(O)O[C@H]1CC[C@@H](CO)[C@H]1O
0.53	1800	O=P(O)(O)O[C@@H]1CO[C@@H](CO)[C@@H]1O
0.53	3600	O=P(O)(O)O[C@H]1COC[C@H]1O
0.65	2900	O=P(O)(O)O[C@H]1CO[C@H](CO)[C@H]1O
< 0.05	2100	O=P(O)(O)O[C@H]1CC[C@H](CO)[C@H]1O
